IC50 data for 21 molecules are collected here from patent publication US20240059703A1 (AMGEN INC., priority 2021, published 2024).

Sequence of KRAS G12C (P01116 other isoform, or with tags, fused parts or gaps G12C/C118A): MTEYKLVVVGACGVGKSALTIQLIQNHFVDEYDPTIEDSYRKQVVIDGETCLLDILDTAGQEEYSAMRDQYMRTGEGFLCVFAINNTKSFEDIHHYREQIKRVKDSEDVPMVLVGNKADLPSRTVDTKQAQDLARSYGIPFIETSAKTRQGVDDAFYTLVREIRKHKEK

The target of the first test is KRAS G12C (Homo sapiens (Human), UniProt P01116, C118A/G12C). Description: 2 h coupled exchange assay. It counts as biochemical. The following applies: Avg 2 h Coupled exchange IC50, 2 h compound pre-incubation. The procedure:
The term “2 h coupled exchange assay” or “20 h coupled exchange assay” as used herein refers to the assay described in the Section entitled “BIOLOGICAL EVALUATION.”
`C=CC(=O)N1CC2(CCN(c3nc4c(c(-c5cccc6cn[nH]c56)c3C#N)C[C@H]3C[C@@H]4C3(C)C)C2)C1` (single isomer, unassigned) [Example 14-28]: the IC50 amounted to 0.886 µM.
Still for that read-out and setting: the figure for `C=CC(=O)N1CC2(CCN(c3nc4c(c(-c5cc(O)ccc5C)c3C)COC(C)(C)C4)C2)C1` (single isomer, unassigned) [Example 14-32, (P)-1-(6-(4-(5-hydroxy-2-methylphenyl)-3,7,7-trimethyl-7,8-dihydro-5H-pyrano[4,3-b]pyridin-2-yl)-2,6-diazaspiro[3.4]octan-2-yl)-2-propen-1-one] is 3.04 µM; for `C=CC(=O)N1CC2(CCN(c3nc4c(c(-c5c(C)ccc6[nH]ncc56)c3C)COC(C)(C)C4)C2)C1` (single isomer, unassigned) [Example 14-34, (M)-1-(6-(3,7,7-trimethyl-4-(5-methyl-1H-indazol-4-yl)-7,8-dihydro-5H-pyrano[4,3-b]pyridin-2-yl)-2,6-diazaspiro[3.4]octan-2-yl)-2-propen-1-one] it is 7.59 µM; for `C=CC(=O)N1CC2(CCN(c3nc4c(c(-c5cc(O)cc6ccccc56)c3C)COC(C)(C)C4)C2)C1` (single isomer, unassigned) [Example 14-35, (P)-1-(6-(4-(3-hydroxy-1-naphthalenyl)-3,7,7-trimethyl-7,8-dihydro-5H-pyrano[4,3-b]pyridin-2-yl)-2,6-diazaspiro[3.4]octan-2-yl)-2-propen-1-one] it is 5.62 µM.
Same read-out and setting: for `C=CC(=O)N1CC2(CCN(c3nc4c(c(-c5ccc(F)c6sc(N)nc56)c3C)COC(C)(C)C4)C2)C1` (single isomer, unassigned) [Example 14-39, (M)-1-(6-(4-(2-amino-7-fluoro-1,3-benzothiazol-4-yl)-3,7,7-trimethyl-7,8-dihydro-5H-pyrano[4,3-b]pyridin-2-yl)-2,6-diazaspiro[3.4]octan-2-yl)-2-propen-1-one] the value was 1.77 µM; for `C=CC(=O)N1CC2(CCN(c3nc4c(c(-c5c(C)c(C)cc6cnn(C)c56)c3C)COC(C)(C)C4)C2)C1` (single isomer, unassigned) [Example 14-42, (M)-1-(6-(3,7,7-trimethyl-4-(1,5,6-trimethyl-1H-indazol-7-yl)-7,8-dihydro-5H-pyrano[4,3-b]pyridin-2-yl)-2,6-diazaspiro[3.4]octan-2-yl)-2-propen-1-one], 7.81 µM; for `C=CC(=O)N1CC2(CCN(c3nc4c(c(-c5cccc6cc(O)ccc56)c3C)COC(C)(C)C4)C2)C1` (single isomer, unassigned) [Example 14-45, (M)-1-(6-(4-(6-hydroxy-1-naphthalenyl)-3,7,7-trimethyl-7,8-dihydro-5H-pyrano[4,3-b]pyridin-2-yl)-2,6-diazaspiro[3.4]octan-2-yl)-2-propen-1-one], 7.48 µM.
The same measure, in the same setting: for `C=CC(=O)N1CC2(CCN(c3nc4c(c(-c5c(C)ccc6cn[nH]c56)c3C#N)C[C@H]3C[C@@H]4C3(C)C)C2)C1` (single isomer, unassigned) [Example 14-52] the value was 1.02 µM.
Turning to `C=CC(=O)N1CC2(CCN(c3nc4c(c(-c5ccc(F)c6sc(N)nc56)c3C#N)COC(C)(C)C4)C2)C1` (single isomer, unassigned) [Example 14-58, (M)-4-(2-amino-7-fluoro-1,3-benzothiazol-4-yl)-7,7-dimethyl-2-(2-(2-propenoyl)-2,6-diazaspiro[3.4]octan-6-yl)-7,8-dihydro-5H-pyrano[4,3-b]pyridine-3-carbonitrile], the IC50 came to 0.357 µM.
The same measure, in the same setting: the figure for `C=CC(=O)N1CC2(CCN(c3nc4c(c(-c5cc(O)ccc5C)c3F)C[C@H]3C[C@@H]4C3(C)C)C2)C1` (single isomer, unassigned) [Example 14-60] is 3.35 µM; for `C=CC(=O)N1CC2(CCN(c3nc4c(c(-c5cc(O)ccc5C)c3F)COC(C)(C)C4)C2)C1` (single isomer, unassigned) [Example 14-61, (M)-1-(6-(3-fluoro-4-(5-hydroxy-2-methylphenyl)-7,7-dimethyl-7,8-dihydro-5H-pyrano[4,3-b]pyridin-2-yl)-2,6-diazaspiro[3.4]octan-2-yl)-2-propen-1-one] it is 76.8 µM; for `C=CC(=O)N1CC2(CCN(c3nc4c(c(-c5cc(O)ccc5C)c3F)COC(C)(C)C4)C2)C1` (single isomer, unassigned) [Example 14-62, (P)-1-(6-(3-fluoro-4-(5-hydroxy-2-methylphenyl)-7,7-dimethyl-7,8-dihydro-5H-pyrano[4,3-b]pyridin-2-yl)-2,6-diazaspiro[3.4]octan-2-yl)-2-propen-1-one] it is 0.696 µM.
Still for that read-out and setting: the figure for `C=CC(=O)N1CC2(CCN(c3nc4c(c(-c5c(C)ccc6cnn(C)c56)c3F)C[C@H]3C[C@@H]4C3(C)C)C2)C1` (single isomer, unassigned) [Example 14-63] is 0.364 µM; for `C=CC(=O)N1CC2(CCN(c3nc4c(c(-c5c(C)ccc6cnn(C)c56)c3F)C[C@H]3C[C@@H]4C3(C)C)C2)C1` (single isomer, unassigned) [Example 14-64] it is 11.8 µM.
The same measure, in the same setting: for `C=CC(=O)N1CC2(CCN(c3nc4c(c(-c5cccc6cc(O)ccc56)c3F)COC(C)(C)C4)C2)C1` (single isomer, unassigned) [Example 14-66, (P)-1-(6-(3-fluoro-4-(6-hydroxy-1-naphthalenyl)-7,7-dimethyl-7,8-dihydro-5H-pyrano[4,3-b]pyridin-2-yl)-2,6-diazaspiro[3.4]octan-2-yl)-2-propen-1-one] the value was 33.5 µM.
Molecule `C=CC(=O)N1CC2(CCN(c3nc4c(c(-c5cccc6cc(O)ccc56)c3F)COC(C)(C)C4)C2)C1` (single isomer, unassigned) [Example 14-67, (M)-1-(6-(3-fluoro-4-(6-hydroxy-1-naphthalenyl)-7,7-dimethyl-7,8-dihydro-5H-pyrano[4,3-b]pyridin-2-yl)-2,6-diazaspiro[3.4]octan-2-yl)-2-propen-1-one] displayed an IC50 of 0.64 µM.
Same read-out and setting: for `C=CC(=O)N1CC2(CCN(c3nc4c(c(-c5cc(O)cc6ccccc56)c3F)COC(C)(C)C4)C2)C1` (single isomer, unassigned) [Example 14-69, (M)-1-(6-(3-fluoro-4-(3-hydroxy-1-naphthalenyl)-7,7-dimethyl-7,8-dihydro-5H-pyrano[4,3-b]pyridin-2-yl)-2,6-diazaspiro[3.4]octan-2-yl)-2-propen-1-one] the value was 17 µM; for `C=CC(=O)N1CC2(CCN(c3nc4c(c(-c5c(C)ccc6[nH]ncc56)c3F)C[C@H]3C[C@@H]4C3(C)C)C2)C1` (single isomer, unassigned) [Example 14-74], 1.56 µM.
Same read-out and setting: for `C=CC(=O)N1CC2(CCN(c3nc4c(c(-c5c(C)ccc6cnn(C)c56)c3F)C[C@H]3C[C@@H]4C3(C)C)C2)C1` (single isomer, unassigned) [Example 14-75] the value was 0.726 µM.

The same test, now with this note: Avg 2 h Coupled exchange IC50, 2 h compound pre-incubation, SOS-mediated nucleotide exchange.
For `C=CC(=O)N1CC2(CCN(c3nc4c(c(-c5cc(O)ccc5C)c3C#N)[C@H]3CC[C@@H]4C3)C2)C1` (single isomer, unassigned) [Example 14-14], the IC50 came to 0.108 µM.
Still for that read-out and setting: the figure for `C=CC(=O)N1CC2(CCN(c3nc4c(c(-c5c(C)ccc6cnn(C)c56)c3C#N)[C@@H]3CC[C@H]4C3)C2)C1` (single isomer, unassigned) [Example 14-16] is 250 µM.

By IC50 is commonly meant the concentration that gives 50% inhibition.
